According to the NIST ThermoML archive (doi:10.1016/j.fluid.2004.10.028):

Details: Liquid, Capillary tube (Ostwald / Ubbelohde) method

O [water]
viscosity [mPa·s]
Details | 296.7 K | 338.3 K | 372.4 K | 413.62 K | 469.4 K | 500.22 K | 544.23 K | 573.7 K
5000 kPa | 0.918 | 0.431 | 0.286 | 0.196 | – | – | – | –
10000 kPa | 0.917 | 0.434 | 0.287 | 0.197 | 0.138 | 0.12 | 0.0983 | 0.086
20000 kPa | 0.915 | 0.435 | 0.288 | 0.201 | 0.141 | 0.123 | 0.1012 | 0.0891
40000 kPa | 0.914 | 0.44 | 0.293 | 0.205 | 0.145 | 0.127 | 0.106 | 0.095
